In US12668600B2 (Kumquat Biosciences Inc., priority 2023, dated 2026):

How the values were obtained:
Assay type in all cases: biochemical
KRAS G12D = biological target: T1, KRAS G12D (Homo sapiens, UniProt P01116, G12D); experiment: HTRF KRAS-SOS1 interaction assay, KRAS G12D; settings: binned ≤2 μM / >2 μM, read-out: Inhibition of KRAS G12D (IC50)
T1 construct: made in house; host or cells: E. coli, e.g. BL21 (DE3)
Summary of the method: (§1)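 GST-tagged KRAS (WT or mutant) with anti-GST-Eu donor, mixed with His-hSOS1 and anti-6His-XL665 acceptor. Buffer ~5 mM HEPES pH 7.4, ~150 mM NaCl, ~1 mM DTT, 0.05% BSA, 0.0025% Igepal; incubated about 10 min or longer. HTRF 665/620 ratio, compounds in duplicate up to 10 μM, IC50 derived.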

KRAS WT = biological target: T2, KRAS WT (Homo sapiens, UniProt P01116); experiment: HTRF KRAS-SOS1 interaction assay, wildtype KRAS; settings: binned ≤2 μM / >2 μM, read-out: Inhibition of KRAS WT (IC50)
T2 construct: made in house; host or cells: E. coli, e.g. BL21 (DE3)
Summary of the method: as §1

KRAS G12V = biological target: T3, KRAS G12V (Homo sapiens, UniProt P01116, G12V); experiment: HTRF KRAS-SOS1 interaction assay, KRAS G12V; settings: binned ≤2 μM / >2 μM, read-out: Inhibition of KRAS G12V (IC50)
T3 construct: made in house; host or cells: E. coli, e.g. BL21 (DE3)
Summary of the method: as §1

KRAS G12S = biological target: T4, KRAS G12S (Homo sapiens, UniProt P01116, G12S); experiment: HTRF KRAS-SOS1 interaction assay, KRAS G12S; settings: binned ≤2 μM / >2 μM, read-out: Inhibition of KRAS G12S (IC50)
T4 construct: made in house; host or cells: E. coli, e.g. BL21 (DE3)
Summary of the method: as §1

Measured: IC50

T1 sequence (P01116 1-188 isoform P01116-2 G12D): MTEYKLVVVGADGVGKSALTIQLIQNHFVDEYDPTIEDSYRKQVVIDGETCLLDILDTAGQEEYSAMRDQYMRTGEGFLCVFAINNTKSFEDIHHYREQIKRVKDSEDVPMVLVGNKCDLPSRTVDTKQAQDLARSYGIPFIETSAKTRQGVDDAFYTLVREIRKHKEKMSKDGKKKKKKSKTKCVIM
T3 sequence (P01116 1-188 isoform P01116-2 G12V): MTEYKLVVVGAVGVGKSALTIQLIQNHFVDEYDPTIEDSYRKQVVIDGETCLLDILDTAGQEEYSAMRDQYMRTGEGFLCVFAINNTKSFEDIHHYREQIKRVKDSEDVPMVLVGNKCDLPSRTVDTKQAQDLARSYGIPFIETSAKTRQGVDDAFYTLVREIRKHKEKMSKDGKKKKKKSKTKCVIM
T4 sequence (P01116 1-188 isoform P01116-2 G12S): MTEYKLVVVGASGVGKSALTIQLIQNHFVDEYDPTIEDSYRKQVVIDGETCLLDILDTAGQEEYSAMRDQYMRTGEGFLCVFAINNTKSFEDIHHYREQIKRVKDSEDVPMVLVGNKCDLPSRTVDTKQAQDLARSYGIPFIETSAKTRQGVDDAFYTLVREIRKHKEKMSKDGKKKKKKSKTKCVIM
T2 sequence (P01116 1-188 isoform P01116-2): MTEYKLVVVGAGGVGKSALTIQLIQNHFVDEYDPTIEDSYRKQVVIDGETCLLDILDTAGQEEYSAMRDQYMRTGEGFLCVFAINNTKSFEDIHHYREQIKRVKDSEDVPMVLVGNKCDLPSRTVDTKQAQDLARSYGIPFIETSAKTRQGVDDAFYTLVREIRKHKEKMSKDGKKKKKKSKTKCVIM

C[C@H](c1cccnc1N)N1CCOc2c(Cl)c(-c3ccc(F)c4sc(N)c(C#N)c34)c(F)c3nc(OC[C@@]45CCCN4C[C@]4(CC4(F)F)C5)nc1c23 [Compound 918, 2-amino-4-(4-((R)-1-(2-aminopyridin-3-yl)ethyl)-8-chloro-2-(((1R,7a′S)-2,2-difluorodihydro-1′H,3′H-spiro[cyclopropane-1,2′-pyrrolizin]-7a′(5′H)-yl)methoxy)-10-fluoro-5,6-dihydro-4H-[1,4]oxazepino[5,6,7-de]quinazolin-9-yl)-7-fluorobenzo[b]thiophene-3-carbonitrile]
≤ 2000 nM: all assays above

C[C@H](c1cccnc1N)N1CCOc2c(Cl)c(-c3ccc(F)c4sc(N)c(C#N)c34)c(F)c3nc(OCC45CCCC4CCC5)nc1c23 (single isomer, unassigned) [Compound 914]
≤ 2000 nM: all assays above

N#Cc1c(N)sc2c(F)ccc(-c3c(C(F)(F)F)c4c5c(nc(OC[C@@]67CCCN6C[C@H](F)C7)nc5c3F)N([C@H](CCC(F)(F)F)c3cccnc3N)CCO4)c12 (atropisomer, axis not shown; (aS)) [Compound 614, 2-amino-4-((S)-4-((R)-1-(2-aminopyridin-3-yl)-4,4,4-trifluorobutyl)-10-fluoro-2-(((2R,7aS)-2-fluorotetrahydro-1H-pyrrolizin-7a (5H)-yl)methoxy)-8-(trifluoromethyl)-5,6-dihydro-4H-[1,4]oxazepino[5,6,7-de]quinazolin-9-yl)-7-fluorobenzo[b]thiophene-3-carbonitrile]
≤ 2000 nM: all assays above

N#Cc1c(N)sc2c(F)ccc(-c3c(C(F)(F)F)c4c5c(nc(OC[C@@]67CCCN6C[C@H](F)C7)nc5c3F)N([C@H](CCC3COCCO3)c3cccnc3N)CCO4)c12 (mixture of isomers) [Compound 648, 2-amino-4-(4-((1R)-1-(2-aminopyridin-3-yl)-3-(1,4-dioxan-2-yl)propyl)-10-fluoro-2-(((2R,7aS)-2-fluorotetrahydro-1H-pyrrolizin-7a(5H)-yl)methoxy)-8-(trifluoromethyl)-5,6-dihydro-4H-[1,4]oxazepino[5,6,7-de]quinazolin-9-yl)-7-fluorobenzo[b]thiophene-3-carbonitrile]
≤ 2000 nM: all assays above

N#Cc1c(N)sc2c(F)ccc(-c3c(C(F)(F)F)c4c5c(nc(OCC6(CN7CCC8(CC7)CC8(F)F)CC6)nc5c3F)N([C@H](CCC(F)(F)F)c3cccnc3N)CCO4)c12 [Compound 637, 2-amino-4-(4-((R)-1-(2-aminopyridin-3-yl)-4,4,4-trifluorobutyl)-2-((1-((1,1-difluoro-6-azaspiro[2.5]octan-6-yl)methyl)cyclopropyl)methoxy)-10-fluoro-8-(trifluoromethyl)-5,6-dihydro-4H-[1,4]oxazepino[5,6,7-de]quinazolin-9-yl)-7-fluorobenzo[b]thiophene-3-carbonitrile]
≤ 2000 nM: all assays above

C=C1CN2CCC[C@@]2(COc2nc3c4c(c(C(F)(F)F)c(-c5ccc(F)c6sc(N)c(C#N)c56)c(F)c4n2)OCCN3[C@H](C)c2cc(F)cnc2N)C1 [Compound 620, 2-amino-4-(4-((R)-1-(2-amino-5-fluoropyridin-3-yl)ethyl)-10-fluoro-2-(((S)-2-methylenetetrahydro-1H-pyrrolizin-7a(5H)-yl)methoxy)-8-(trifluoromethyl)-5,6-dihydro-4H-[1,4]oxazepino[5,6,7-de]quinazolin-9-yl)-7-fluorobenzo[b]thiophene-3-carbonitrile]
≤ 2000 nM: all assays above

N#Cc1c(N)sc2c(F)ccc(-c3c(Cl)c4c5c(nc(OC[C@@]67CCCN6C[C@H](F)C7)nc5c3F)N(Cc3cccnc3N)C3COCC3CO4)c12 (mixture of isomers) [Compound 868, 2-amino-4-(12-((2-aminopyridin-3-yl)methyl)-6-chloro-4-fluoro-2-(((2R,7aS)-2-fluorotetrahydro-1H-pyrrolizin-7a (5H)-yl)methoxy)-8a,9,11a, 12-tetrahydro-8H, 11H-furo[3′,4′: 6,7][1,5]oxazocino[4,3,2-de]quinazolin-5-yl)-7-fluorobenzo[b]thiophene-3-carbonitrile]
≤ 2000 nM: all assays above

C[C@H](c1cccnc1N)N1CCOc2c(C(F)(F)F)c(-c3ccc(F)c4sc(N)c(C#N)c34)c(F)c3nc(OCC4(CN5CCC(=CF)CC5)CC4)nc1c23 [Compound 814, 2-amino-4-(4-((R)-1-(2-aminopyridin-3-yl)ethyl)-10-fluoro-2-((1-((4-(fluoromethylene)piperidin-1-yl)methyl)cyclopropyl)methoxy)-8-(trifluoromethyl)-5,6-dihydro-4H-[1,4]oxazepino[5,6,7-de]quinazolin-9-yl)-7-fluorobenzo[b]thiophene-3-carbonitrile]
≤ 2000 nM: all assays above

CC(Oc1nc2c3c(c(Cl)c(-c4ccc(F)c5sc(N)c(C#N)c45)c(F)c3n1)OCCN2[C@H](C)c1cccnc1N)[C@@H]1CC(F)(F)CN1C (single isomer, unassigned) [Compound 919]
≤ 2000 nM: all assays above

C[C@H](c1cc(Cl)cnc1N)N1CCOc2c(C(F)(F)F)c(-c3ccc(F)c4sc(N)c(C#N)c34)c(F)c3nc(OC[C@@]45CCCN4C[C@@]4(CC4(F)F)C5)nc1c23 [Compound 713, 2-amino-4-(4-((R)-1-(2-amino-5-chloropyridin-3-yl)ethyl)-2-(((1S,7a′S)-2,2-difluorodihydro-1′H,3′H-spiro[cyclopropane-1,2′-pyrrolizin]-7a′(5′H)-yl)methoxy)-10-fluoro-8-(trifluoromethyl)-5,6-dihydro-4H-[1,4]oxazepino[5,6,7-de]quinazolin-9-yl)-7-fluorobenzo[b]thiophene-3-carbonitrile]
≤ 2000 nM: all assays above

C[C@H](c1cc(Cl)cnc1N)N1CCOc2c(C(F)(F)F)c(-c3ccc(F)c4sc(N)c(C#N)c34)c(F)c3nc(OCC4(CN5CCC(=CF)CC5)CC4)nc1c23 [Compound 819, 2-amino-4-(4-((R)-1-(2-amino-5-chloropyridin-3-yl)ethyl)-10-fluoro-2-((1-((4-(fluoromethylene)piperidin-1-yl)methyl)cyclopropyl)methoxy)-8-(trifluoromethyl)-5,6-dihydro-4H-[1,4]oxazepino[5,6,7-de]quinazolin-9-yl)-7-fluorobenzo[b]thiophene-3-carbonitrile]
≤ 2000 nM: all assays above

CC[S+]([O-])[C@@H]1C[C@]2(COc3nc4c5c(c(Cl)c(-c6ccc(F)c7sc(N)c(C#N)c67)c(F)c5n3)OCCN4[C@H](C)c3cccnc3N)CCC[N+]2([O-])C1 (mixture of isomers) [Compound 626, (2R,7aS)-7a-(((9-(2-amino-3-cyano-7-fluorobenzo[b]thiophen-4-yl)-4-((R)-1-(2-aminopyridin-3-yl)ethyl)-8-chloro-10-fluoro-5,6-dihydro-4H-[1,4]oxazepino[5,6,7-de]quinazolin-2-yl)oxy)methyl)-2-(ethylsulfinyl)hexahydropyrrolizine 4(1H)-oxide]
≤ 2000 nM: all assays above

C[C@H](c1cccnc1N)N1CCOc2c(Cl)c(-c3ccc(F)c4sc(N)c(C#N)c34)c(F)c3nc(OC[C@]45CCCN4[C@H](CN)CC5)nc1c23 [Compound 915, 2-amino-4-(2-(((3S,7aR)-3-(aminomethyl)tetrahydro-1H-pyrrolizin-7a(5H)-yl)methoxy)-4-((R)-1-(2-aminopyridin-3-yl)ethyl)-8-chloro-10-fluoro-5,6-dihydro-4H-[1,4]oxazepino[5,6,7-de]quinazolin-9-yl)-7-fluorobenzo[b]thiophene-3-carbonitrile]
≤ 2000 nM: all assays above

C[C@H](c1cccnc1N)N1CCOc2c(C3CC3)c(-c3ccc(F)c4sc(N)c(C#N)c34)c(F)c3nc(OC[C@@]45CCCN4C[C@H](F)C5)nc1c23 (single isomer, unassigned) [Compound 727]
≤ 2000 nM: all assays above

N#Cc1c(N)sc2c(F)ccc(-c3c(Cl)c4c5c(nc(OC[C@@]67CCCN6C[C@H](F)C7)nc5c3F)N(C(/C=C/F)c3cccnc3N)CCO4)c12 (single isomer, unassigned) [Compound 708]
≤ 2000 nM: all assays above
